# Experimental data from PubChem BioAssay (NCI).
# “And” between values parts separate entries of the source, which are not always exact repeats. Equal entries are not always repeated.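 The compound was tested at five concentrations on cells cultured in 96-well plates, with a 48-hour exposure period. Here, GI50 denotes the concentration required for 50% inhibition of growth. TGI denotes the concentration required for complete inhibition of growth.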
# Key:
# Experiment in all cases: NCI anticancer screen, dose series, 48 h
# [1] = test system: HCT-15 colon
# [2] = test system: MDA-MB-435
# [3] = test system: CAKI-1 renal
# [4] = test system: MALME-3M melanoma
# [5] = test system: SK-MEL-28 melanoma
# [6] = test system: MCF7 breast
# [7] = test system: SF-295 CNS
# [8] = test system: MDA-MB-231 breast
Compound,TGI [1] [µM],TGI [2] [µM],TGI [3],TGI [4],TGI [5],TGI [6],TGI [7],TGI [8],GI50 [1] [µM],GI50 [2] [µM],GI50 [3],GI50 [4],GI50 [5],GI50 [6],GI50 [7],GI50 [8]
S=c1[nH]nc(SCc2ccccc2Cl)c2[nH]cnc12,> 100,> 100,> 100 µM,> 100 µM,> 100 µM,> 100 µM,> 100 µM,> 100 µM,,,,,,,,
CCCNc1cccc(-n2ncc3c(N/N=C/c4ccncc4)ncnc32)c1,> 25,> 25,> 25 µM,> 25 µM,> 25 µM,> 25 µM,> 25 µM,> 25 µM,1.68,0.757,1.1 µM,> 7.75 µM,> 10 µM,> 5.61 µM,3.58 µM,> 25 µM
C[C@H]1CCC/C=C/[C@@H]2C[C@H](O)C[C@H]2[C@H](O)[C@@H](SC2OC(CO)C(O)C(O)C2O)CC(=O)O1 (stereo partly drawn),> 100,> 100,> 100 µM,69.4 µM,> 100 µM,> 100 µM,> 100 µM,91 µM,> 100,69.8,> 100 µM,27.6 µM,74.3 µM,35.1 µM,> 100 µM,26.9 µM
O=C(Nc1ccccc1C(=O)Nc1nccs1)c1ccccc1,> 100,> 100,> 100 µM,> 100 µM,> 100 µM,> 100 µM,> 100 µM,> 100 µM,,,,,,,,
CC(C)N(Cc1ccccc1)S(=O)(=O)c1n[nH]c(C(C)(C)C)n1,> 100,> 100,> 100 µM,> 100 µM,> 100 µM,> 100 µM,> 100 µM,> 100 µM,,,,,,,,
COc1cc(N=Nc2cccc(S(N)(=O)=O)c2)c2ccccc2c1N,49.5,3.71,20.8 µM,3.13 µM,19.9 µM,20.5 µM,26.6 µM,26.5 µM,,,,,,,,
C[C@H]1CC2=CC(=O)CC[C@]2(C)[C@H]2CC[C@@]3(C)[C@@H](CC[C@]3(C)O)[C@H]12,> 100,> 88,77.2 µM,> 92.4 µM,> 85.2 µM,> 76.7 µM,62.5 µM,> 100 µM,28.2,29.3,24 µM,26 µM,29.3 µM,24.9 µM,21.4 µM,35 µM
COc1cc(/C=C/c2cc(/C=C/c3ccc(O)c(OC)c3)[nH]c(=O)n2)ccc1O,> 100,18.2,> 100 µM,> 100 µM,13.1 µM,11.4 µM,9.87 µM,> 100 µM,5.43,2.72,3.38 µM,3.91 µM,3.05 µM,2.96 µM,2.75 µM,3.59 µM
COc1cc(CC2CC(c3ccc4c(c3)OCO4)OC2=O)cc(OC)c1OC (stereo not drawn),> 100,> 100,> 100 µM,> 100 µM,> 100 µM,> 100 µM,> 100 µM,> 100 µM,,,,,,,,
O=S1(=O)CC(Br)C(Br)C1 (stereo not drawn),7.24,18.6,11.8 µM,13.1 µM,13.7 µM,11.7 µM,> 100 µM,10.3 µM,2.64,4.16,3.12 µM,3.91 µM,3.64 µM,2.72 µM,24.5 µM,3.15 µM
CC(C)(F)C[C@H](N[C@@H](c1ccc(-c2ccc(S(C)(=O)=O)cc2)cc1)C(F)(F)F)C(=O)NC1(C#N)CC1,> 100,> 100,55 µM and > 100 µM,55 µM and 62 µM,55 µM and > 100 µM,55 µM and > 100 µM,55 µM and 50.9 µM,55 µM and > 100 µM,> 100,> 100,18.7 µM and 27.4 µM,17.5 µM and 22.2 µM,49.1 µM and 36.3 µM,35 µM and > 100 µM,18.8 µM and 17.9 µM,18.6 µM and 34.4 µM
C#CCOc1cccc(Nc2ncc3ncn(C4CCN(C(=O)CCl)C4)c3n2)c1 (stereo not drawn),> 62.5,> 62.5,> 62.5 µM,56.2 µM,> 62.5 µM,> 62.5 µM,> 62.5 µM,> 62.5 µM,> 62.5,> 62.5,> 62.5 µM,8.78 µM,> 62.5 µM,59.2 µM,> 62.5 µM,> 62.5 µM
CC[C@H](C)[C@H](NC(=O)c1nccn1C)C(=O)N(C)[C@H](C[C@@H](OC(C)=O)c1nc(C(=O)N[C@@H](Cc2ccccc2)C[C@H](C)C(=O)OC)cs1)C(C)C,> 33.3,0.428,,> 33.3 µM,> 33.3 µM,> 33.3 µM,2.07 µM,22 µM,0.999,0.0944,,5.87 µM,5.05 µM,0.187 µM,0.639 µM,1.17 µM
O=C1NC(O)CCN1C1CC(O)C(CO)O1 (stereo not drawn),> 100,> 100,> 100 µM,> 100 µM,> 100 µM,> 100 µM,> 100 µM,> 100 µM,,,,,,,,
C(#Cc1ccccc1C#Cc1ccccn1)c1ccccn1,25,22.5,42.5 µM,21 µM,84 µM,38.2 µM,33.3 µM,36.6 µM,11.2,8.43,18.3 µM,7.74 µM,27.4 µM,14.3 µM,16.8 µM,16.6 µM
Cc1cc(S(=O)(=O)Nc2nc3cc(-c4ccsc4)sc3c(=O)n2N)c(S)cc1Cl,> 100,> 100,> 100 µM,> 100 µM,,> 100 µM,> 100 µM,> 100 µM,59.2,85.3,> 100 µM,> 100 µM,,46.9 µM,29.7 µM,15.7 µM
CN1N=Nc2c(C(F)(F)F)nn(-c3ccccc3)c2N(C)C1=O,> 100,> 100,> 100 µM,> 100 µM,> 100 µM,> 100 µM,> 100 µM,> 100 µM,> 100,> 100,> 100 µM,> 100 µM,> 100 µM,> 100 µM,> 100 µM,> 100 µM
C[C@]12CC[C@H]3[C@@H](CCC4=C[C@@H](OC5OCC(OC6OC(CO)C(O)C(O)C6O)C(O)C5O)CC[C@@]43C=O)[C@@]1(O)CCC2C1=CC(=O)OC1 (stereo partly drawn),1.76,3.71,1.62 µM,2.19 µM,9.62 µM,> 100 µM,3.53 µM,> 73.7 µM,,,,,,,,
